Reference: US20250129086A1, “COMPOUND FOR DEGRADING EGFR PROTEIN AND USE THEREOF” (TYK MEDICINES, INC., priority 2021, published 2025)

How the values were obtained:
Type in all cases: cell-based, human
[1] = test system: H1975 (EGFR L858R/T790M double mutation); experiment: Cell antiproliferative assay (CTG, 72 h), H1975; conditions: Homo sapiens, NCI-H1975, 72 h, Table 2, H1975 cells
Procedure: (§1) Test Example 1 Cell Antiproliferative Assay
(§2) H1975: with EGFR: L858R/T790M double mutation; PC-9 with EGFR exon 19 deletion, HCC827 with exon 19 deletion mutation. CellCounting-Lite2.0, Trypsin EDTA, 37° C. CO2 incubator, cell counter, EnVision Serial No.1050454. II. Experimental preparation:
(§3) • (A) Trypsin EDTA was used to digest log-phase cells, medium was added to terminate the reaction, and a cell suspension was made by blowing and mixing with a pipette. • (B) Cell concentration was determined using Vi-cell, and a suspension of 15,000-25,000 cells per milliliter was made depending on the purpose of the experiment and the characteristics of the cells. • (C) After the cell suspension was prepared, it was gently mixed and 100 microliters per well was added so that the density of cells to be tested was 1500-2500 per well.
(§4) • (A) About 2 mg of compound was weighed, and the volume of DMSO required was calculated according to the formula: compound mass (mg)*compound purity (%)/compound molecular weight*1000 • (B) The inoculated cell culture plates were incubated in an incubator and the compounds with concentration gradient were added after about 24 hours. • (C)10 Mm of compound stock solution was diluted to […] with medium, and 50 Mm of compound solution was added sequentially to the second column of the deep-well plate, and […] of medium containing 0.5% DMSO was added to the third to eleventh columns. • (D) Gradient dilution: 125 μl of solution was pipetted from the second column and added to the third column, after mixing; another 125 μl of solution was pipetted from the third column and added to the fourth column, and the operation was repeated until the tenth column. • (E)25 μl of compound was pipetted from the deep-well plate into a 96-well culture plate using a multichannel pipette, and each compound was repeated three times on the 96-well plate. A maximum concentration of 10,000 nm with concentration gradient of 1:4 was eventually formed on the 96-well plate.
(§5) • (A)96-well plates were incubated in an incubator for 72 h. The effect of the compounds was observed under an inverted microscope. • (B)25 μl of CTG solution was added to each well, the plate was put on shaker for 10 minutes and the […] of each well was read.
(§6) The cell viability rate (% Cell Viability) was calculated using the following formula: • % Cell Viability=100%×(Lum_Sample-Lum_LC)/(Lum_HC-Lum_LC) • Lum_HC: Cell reading of 0.1% DMSO control • Lum_Sample: Cell reading with compound added • Lum_LC: Reading of Blank media • IC50 values were obtained by curve fitting with GraphPad Prism 8 software.

[2] = test system: PC-9 (EGFR exon 19 deletion); experiment: Cell antiproliferative assay (CTG, 72 h), PC-9; conditions: Homo sapiens, PC-9, 72 h, Table 2, PC-9 cells
Procedure: as §1, §2, §3, §4, §5, §6

[3] = test system: HCC827 (exon 19 deletion mutation); experiment: Cell antiproliferative assay (CTG, 72 h), HCC827; conditions: Homo sapiens, HCC827, 72 h, Table 2, HCC827 cells
Procedure: as §1, §2, §3, §4, §5, §6

SMILES	IC50 [1]	IC50 [2]	IC50 [3]
COc1cc(N2CCN(C(=O)CN3CCC(c4ccc(NC5CCC(=O)NC5=O)cc4)CC3)CC2)ccc1Nc1ncc(Cl)c(Nc2ccc(F)cc2C(C)(C)O)n1 (stereo not drawn) [Compound T-199]	10 to 100 nM	100 to 1000 nM	100 to 1000 nM
COc1cc(OC2CCN(C(=O)CN3CCC(c4ccc(NC5CCC(=O)NC5=O)cc4)CC3)CC2)ccc1Nc1ncc(Cl)c(Nc2ccccc2C(C)=O)n1 (stereo not drawn) [Compound T-214]	100 to 1000 nM	≥ 1000 nM	100 to 1000 nM
COc1cc(N2CCN(C(=O)CN3CCC(c4ccc(NC5CCC(=O)NC5=O)cc4)CC3)CC2)ccc1Nc1ncc(Cl)c(Nc2ccccc2NS(C)(=O)=O)n1 (stereo not drawn) [Compound T-218]	10 to 100 nM	100 to 1000 nM	10 to 100 nM
C=CC(=O)Nc1cc(Nc2nccc(-c3cn(C)c4ccccc34)n2)c(OC)cc1N(C)CCN(C)CC(=O)N1CCC(c2ccc(NC3CCC(=O)NC3=O)cc2)CC1 (stereo not drawn) [Compound T-237]	≥ 1000 nM	100 to 1000 nM	100 to 1000 nM
COc1cc(N2CCN(c3ncc(Cl)c(Nc4ccccc4C(C)=O)n3)CC2)ncc1NC(=O)CN1CCC(c2ccc(NC3CCC(=O)NC3=O)cc2)CC1 (stereo not drawn) [Compound T-239]	≥ 1000 nM	≥ 1000 nM	100 to 1000 nM
COc1cc(N2CCN(C(=O)CN3CCC(c4ccc(NC5CCC(=O)NC5=O)cc4)CC3)CC2)ncc1Nc1ncc(Cl)c(Nc2ccccc2C(C)=O)n1 (stereo not drawn) [Compound T-244]	10 to 100 nM	10 to 100 nM	10 to 100 nM
COc1ccc(Nc2nc(Nc3ccc(N4CCN(C(=O)CN5CCC(c6ccc(NC7CCC(=O)NC7=O)cc6)CC5)CC4)cc3OC)ncc2Cl)c(C(C)=O)c1 (stereo not drawn) [Compound T-249]	≤ 10 nM	10 to 100 nM	10 to 100 nM
CNC(=O)c1ccccc1Nc1nc(Nc2cc(C)c(N3CCN(C(=O)CN4CCC(c5ccc(NC6CCC(=O)NC6=O)cc5)CC4)CC3)cc2OC)ncc1Br (stereo not drawn) [Compound T-255]	≤ 10 nM	10 to 100 nM	10 to 100 nM
COc1cc(N2CCN(C(=O)CN3CCC(c4ccc(NC5CCC(=O)NC5=O)cc4)CC3)CC2)ccc1Nc1ncc(C(F)(F)F)c(Nc2ccccc2C(=O)Nc2ccccc2)n1 (stereo not drawn) [Compound T-267]	100 to 1000 nM	100 to 1000 nM	100 to 1000 nM
CNC(=O)c1ccccc1Nc1nc(Nc2cc(C#N)c(N3CCN(C(=O)CN4CCC(c5ccc(NC6CCC(=O)NC6=O)cc5)CC4)CC3)cc2OC)ncc1Cl (stereo not drawn) [Compound T-283]	≤ 10 nM	10 to 100 nM	10 to 100 nM
COc1cc(N2CCN(C(=O)CN3CCC(c4ccc(NC5CCC(=O)NC5=O)cc4)CC3)CC2)c(C#N)cc1Nc1ncc(Br)c(Nc2ccccc2C(C)=O)n1 (stereo not drawn) [Compound T-286]	10 to 100 nM	10 to 100 nM	10 to 100 nM
CNC(=O)c1ccccc1Nc1nc(Nc2cc(C(F)(F)F)c(N3CCN(C(=O)CN4CCC(c5ccc(NC6CCC(=O)NC6=O)cc5)CC4)CC3)cc2OC)ncc1Br (stereo not drawn) [Compound T-292]	≤ 10 nM	10 to 100 nM	10 to 100 nM
CNC(=O)c1ccccc1Nc1nc(Nc2ccc(N3CCN(C(=O)CN4CCC(c5ccc(NC6CCC(=O)NC6=O)cc5F)CC4)CC3)cc2OC)ncc1Br (stereo not drawn) [Compound T-295]	≤ 10 nM	10 to 100 nM	10 to 100 nM
CNC(=O)c1ccccc1Nc1nc(Nc2ccc(N3CCN(C(=O)CC4(F)CCN(c5ccc(NC6CCC(=O)NC6=O)cc5)CC4)CC3)cc2OC)ncc1Cl (stereo not drawn) [Compound T-300]	10 to 100 nM	10 to 100 nM	10 to 100 nM
CNC(=O)c1ccccc1Nc1nc(Nc2ccc(N3CCN(C(=O)CN4CCC(c5ccc(NC6CCC(=O)NC6=O)cc5)C(F)(F)C4)CC3)cc2OC)ncc1Br (stereo not drawn) [Compound T-313]	≤ 10 nM	10 to 100 nM	10 to 100 nM

The remaining lines, values ahead:

IC50 [1]	IC50 [2]	IC50 [3]	SMILES
10 to 100 nM	100 to 1000 nM	100 to 1000 nM	COc1cc(N2CCN(C(=O)CN3CCC(c4ccc(NC5CCC(=O)NC5=O)cc4)CC3)CC2)ccc1Nc1ncc(Cl)c(Nc2ccccc2C(C)(C)O)n1 (stereo not drawn) [Compound T-196]
10 to 100 nM	100 to 1000 nM	100 to 1000 nM	COc1cc(N2CCN(C(=O)CN3CCC(c4ccc(NC5CCC(=O)NC5=O)cc4)CC3)CC2)ccc1Nc1ncc(Cl)c(Nc2ccccc2OC)n1 (stereo not drawn) [Compound T-200]
100 to 1000 nM	≥ 1000 nM	100 to 1000 nM	COc1cc(N2CCN(CCC3CCN(c4ccc5c(c4)C(=O)N(C4CCC(=O)NC4=O)C5=O)CC3)CC2)ccc1Nc1ncc(Cl)c(Nc2ccccc2C(C)=O)n1 (stereo not drawn) [Compound T-212]
100 to 1000 nM	≥ 1000 nM	≥ 1000 nM	COc1cc(N2CCC(CN3CCN(c4ccc5c(c4)C(=O)N(C4CCC(=O)NC4=O)C5=O)CC3)CC2)ccc1Nc1ncc(Cl)c(Nc2ccccc2C(C)=O)n1 (stereo not drawn) [Compound T-225]
100 to 1000 nM	≥ 1000 nM	100 to 1000 nM	COc1cc(N2CCN(CC3CCN(c4ccc5c(c4)C(=O)N(C4CCC(=O)NC4=O)C5=O)CC3)CC2)ccc1Nc1ncc(Cl)c(Nc2ccccc2C(C)=O)n1 (stereo not drawn) [Compound T-226]
100 to 1000 nM	≥ 1000 nM	10 to 100 nM	COc1cc(N2CCN(C(=O)CC3CCN(c4ccc5c(c4)C(=O)N(C4CCC(=O)NC4=O)C5=O)CC3)CC2)ccc1Nc1ncc(Cl)c(Nc2ccccc2C(C)=O)n1 (stereo not drawn) [Compound T-231]
≤ 10 nM	100 to 1000 nM	100 to 1000 nM	COc1cc(N2CCN(C(=O)CN3CCC(c4ccc(NC5CCC(=O)NC5=O)cc4)CC3)CC2)c(C)cc1Nc1ncc(Cl)c(Nc2ccccc2C(=O)N(C)C)n1 (stereo not drawn) [Compound T-241]
100 to 1000 nM	100 to 1000 nM	100 to 1000 nM	COc1cc(N2CCN(C(=O)CN3CCC(c4ccc(NC5CCC(=O)NC5=O)cc4)C3)CC2)ccc1Nc1ncc(Cl)c(Nc2ccccc2C(C)=O)n1 (stereo not drawn) [Compound T-242]
≤ 10 nM	10 to 100 nM	10 to 100 nM	COc1cc(N2CCN(C(=O)CN3CCC(c4ccc(NC5CCC(=O)NC5=O)cc4)CC3)CC2)ccc1Nc1ncc(Cl)c(Nc2ccc(Cl)cc2C(C)(C)O)n1 (stereo not drawn) [Compound T-243]
10 to 100 nM	100 to 1000 nM	100 to 1000 nM	COc1cc(N2CCN(C(=O)CN3CCC(c4ccc(NC5CCC(=O)NC5=O)cc4)CC3)CC2)ccc1Nc1ncc(Cl)c(Nc2ccccc2C(=O)NC(C)C)n1 (stereo not drawn) [Compound T-259]
10 to 100 nM	10 to 100 nM	10 to 100 nM	COc1cc(N2CCN(C(=O)CN3CCC(c4ccc(NC5CCC(=O)NC5=O)cc4)CC3)CC2)ccc1Nc1ncc(Cl)c(Nc2cccc3c2C(=O)N(C)C3)n1 (stereo not drawn) [Compound T-268]
≤ 10 nM	10 to 100 nM	10 to 100 nM	COc1cc(N2CCN(C(=O)CN3CCC(c4ccc(NC5CCC(=O)NC5=O)cc4)CC3)CC2)ccc1Nc1ncc(Br)c(Nc2cccc3c2C(=O)NC3)n1 (stereo not drawn) [Compound T-272]
10 to 100 nM	10 to 100 nM	10 to 100 nM	COc1cc(N2CCN(C(=O)CN3CCC(c4ccc(NC5CCC(=O)NC5=O)cc4)CC3)CC2)c(C#N)cc1Nc1ncc(Cl)c(Nc2ccccc2C(C)=O)n1 (stereo not drawn) [Compound T-282]
10 to 100 nM	10 to 100 nM	10 to 100 nM	COc1cc(N2CCN(C(=O)CN3CCC(c4ccc(NC5CCC(=O)NC5=O)cc4)CC3)CC2)c(C(F)(F)F)cc1Nc1ncc(Br)c(Nc2ccccc2C(C)=O)n1 (stereo not drawn) [Compound T-289]
10 to 100 nM	10 to 100 nM	10 to 100 nM	COc1cc(N2CCN(C(=O)CC3(F)CCN(c4ccc(NC5CCC(=O)NC5=O)cc4)CC3)CC2)ccc1Nc1ncc(Cl)c(Nc2ccccc2C(C)=O)n1 (stereo not drawn) [Compound T-303]
